Results from PMC3177827 (PLoS ONE, 2011).
“Also recorded” adds a separate entry of the source. The star is where a group is joined. pNA = O=[N+]([O-])c1ccc(N*)cc1; Cbz = O=C(OCc1ccccc1)*

How the values were obtained:
[1] = PAN-23 (Bifidobacterium dentium HOT-588) bacterial suspension in saliva ion buffer; conditions: up to 24 h
[2] = PAN-5 (Bifidobacterium dentium HOT-588) bacterial suspension in saliva ion buffer; conditions: up to 24 h
[3] = WSA-2B (Rothia mucilaginosa HOT-681) bacterial suspension in saliva ion buffer; conditions: up to 24 h
[4] = WSAN-14 (Bifidobacterium longum HOT-B54) bacterial suspension in saliva ion buffer; conditions: up to 24 h
[5] = WSAN-16 (Bifidobacterium longum HOT-B54) bacterial suspension in saliva ion buffer; conditions: up to 24 h
[6] = PAN-19 (Bifidobacterium dentium HOT-588) bacterial suspension in saliva ion buffer; conditions: up to 24 h
[7] = WSA-7A (Streptococcus mitis HOT-677) bacterial suspension in saliva ion buffer; conditions: up to 24 h
[8] = WSA-26 (Rothia mucilaginosa HOT-681) bacterial suspension in saliva ion buffer; conditions: up to 24 h
[9] = Whole plaque (Mixture of bacteria) suspension in saliva ion buffer; conditions: human, up to 24 h
[10] = WSAN-25 (Veilonella atypica HOT-524) bacterial suspension in saliva ion buffer; conditions: up to 24 h
[11] = PAN-18 (Bifidobacterium dentium HOT-588) bacterial suspension in saliva ion buffer; conditions: up to 24 h
[12] = WSA-8 (Rothia aeria HOT-188) bacterial suspension in saliva ion buffer; conditions: up to 24 h
[13] = PAN-0 (Streptococcus pneumoniae HOT-734) bacterial suspension in saliva ion buffer; conditions: up to 24 h
[14] = bacterial suspension in saliva ion buffer (OD620 1.2); conditions: up to 24 h
[15] = mixed human dental plaque bacteria; conditions: cited from earlier work
[16] = WSA-10 (Staphylococcus epidermidis HOT-601) bacterial suspension in saliva ion buffer; conditions: up to 24 h
[17] = PAN-8 (Bifidobacterium dentium HOT-588) bacterial suspension in saliva ion buffer; conditions: up to 24 h
[18] = WSAN-24 (Bifidobacterium longum HOT-B54) bacterial suspension in saliva ion buffer; conditions: up to 24 h
trypsin = trypsin (1 µg/ml in 50 mM ammonium bicarbonate, pH 8.0); conditions: up to 24 h
chymotrypsin = chymotrypsin (1 µg/ml in 50 mM ammonium bicarbonate, pH 8.0); conditions: up to 24 h
[19] = strain WSA-8 (R. aeria) in saliva ion buffer (OD620 1.2, pH 7.0); conditions: Rothia aeria, up to 5 h
mammalian enzymes = conditions: cited from earlier work
pepsin = pepsin (1 µg/ml in 0.1 M HCl, pH 1.0); conditions: up to 24 h
[20] = Bifidobacterium dentium HOT-588 (strain PAN-5)
[21] = Bifidobacterium dentium HOT-588 (strain PAN-8)
[22] = Bifidobacterium dentium HOT-588 (strain PAN-18)
[23] = Bifidobacterium dentium HOT-588 (strain PAN-19)
[24] = Bifidobacterium dentium HOT-588 (strain PAN-23)
[25] = Bifidobacterium longum HOT-B54 (strain WSAN-14)
[26] = Bifidobacterium longum HOT-B54 (strain WSAN-16)
[27] = Bifidobacterium longum HOT-B54 (strain WSAN-24)
[28] = Rothia aeria HOT-188 (strain WSA-8)
[29] = Rothia mucilaginosa HOT-681 (strain WSA-2B)
[30] = Rothia mucilaginosa HOT-681 (strain WSA-26)
[31] = Staphylococcus epidermidis HOT-601 (strain WSA-10)
[32] = Streptococcus mitis HOT-677 (strain WSA-7A)
[33] = Streptococcus pneumoniae HOT-734 (strain PAN-0)
[34] = Veilonella atypica HOT-524 (strain WSAN-25)

not cleaved [1]	not cleaved [2]	not cleaved [3]	not cleaved [4]	not cleaved [5]	not cleaved [6]	not cleaved [7]	not cleaved [8]	cleaved bond [9]	not cleaved [10]	not cleaved [11]	not cleaved [12]	not cleaved [13]	not cleaved [14, 20]	not cleaved [14, 21]	not cleaved [14, 22]	not cleaved [14, 23]	not cleaved [14, 24]	not cleaved [14, 25]	Substance	cleaved bond [15]	also measured
− after 24 h incubation	− after 24 h incubation	− after 24 h incubation	− after 24 h incubation	− after 24 h incubation	− after 24 h incubation	− after 24 h incubation	− after 24 h incubation	P-pNA	− after 24 h incubation	− after 24 h incubation	− after 24 h incubation	− after 24 h incubation	− after 24 h	− after 24 h	− after 24 h	− after 24 h	− after 24 h	− after 24 h	Cbz-Gln-Gln-Pro-pNA	P-pNA	not cleaved [14, 26]: − after 24 h; not cleaved [14, 27]: − after 24 h; not cleaved [14, 28]: − (not cleaved) after 24 h; not cleaved [14, 29]: − (not cleaved) after 24 h; not cleaved [14, 30]: − (not cleaved) after 24 h; not cleaved [14, 31]: − after 24 h; not cleaved [14, 32]: − after 24 h; not cleaved [14, 33]: − after 24 h; not cleaved [14, 34]: − after 24 h; not cleaved [16]: − after 24 h incubation; not cleaved [17]: − after 24 h incubation; not cleaved [18]: − after 24 h incubation
–	–	–	–	–	–	–	–	–	–	–	–	–	–	–	–	–	–	–	Cbz-Lys-Pro-Gln-pNA	–	cleaved bond [3]: Q-pNA; cleaved bond [12]: Q-pNA
− after 24 h incubation	− after 24 h incubation	− after 24 h incubation	− after 24 h incubation	− after 24 h incubation	− after 24 h incubation	− after 24 h incubation	− after 24 h incubation	P-pNA	− after 24 h incubation	− after 24 h incubation	− after 24 h incubation	− after 24 h incubation	− after 24 h	− after 24 h	− after 24 h	− after 24 h	− after 24 h	− after 24 h	Cbz-Pro-Phe-Pro-pNA	P-pNA	not cleaved [14, 26]: − after 24 h; not cleaved [14, 27]: − after 24 h; not cleaved [14, 28]: − (not cleaved) after 24 h; not cleaved [14, 29]: − (not cleaved) after 24 h; not cleaved [14, 30]: − (not cleaved) after 24 h; not cleaved [14, 31]: − after 24 h; not cleaved [14, 32]: − after 24 h; not cleaved [14, 33]: − after 24 h; not cleaved [14, 34]: − after 24 h; not cleaved [16]: − after 24 h incubation; not cleaved [17]: − after 24 h incubation; not cleaved [18]: − after 24 h incubation
− after 24 h incubation	− after 24 h incubation	− after 24 h incubation	− after 24 h incubation	− after 24 h incubation	− after 24 h incubation	− after 24 h incubation	− after 24 h incubation	F-pNA	− after 24 h incubation	− after 24 h incubation	− after 24 h incubation	− after 24 h incubation	− after 24 h	− after 24 h	− after 24 h	− after 24 h	− after 24 h	− after 24 h	Cbz-Pro-Pro-Phe-pNA	F-pNA	not cleaved [14, 26]: − after 24 h; not cleaved [14, 27]: − after 24 h; not cleaved [14, 28]: − (not cleaved) after 24 h; not cleaved [14, 29]: − (not cleaved) after 24 h; not cleaved [14, 30]: − (not cleaved) after 24 h; not cleaved [14, 31]: − after 24 h; not cleaved [14, 32]: − after 24 h; not cleaved [14, 33]: − after 24 h; not cleaved [14, 34]: − after 24 h; not cleaved [16]: − after 24 h incubation; not cleaved [17]: − after 24 h incubation; not cleaved [18]: − after 24 h incubation
–	–	–	–	–	–	–	–	–	–	–	–	–	–	–	–	–	–	–	FLQPQQPFPQQPQQPYPQQPQQPFPQ	–	not cleaved (trypsin): resistant to degradation; sampled at t = 24 h; not cleaved (chymotrypsin): resistant to degradation; sampled at t = 24 h; cleaved bond [19]: Y-P, major; not cleaved (mammalian enzymes): resistant to degradation by mammalian enzymes; not cleaved (pepsin): resistant to degradation; sampled at t = 24 h
–	–	–	–	–	–	–	–	–	–	–	–	–	–	–	–	–	–	–	LQLQPFPQPQLPYPQPQLPYPQPQLPYPQPQPF	–	not cleaved (trypsin): resistant to degradation; sampled at t = 24 h; not cleaved (chymotrypsin): resistant to degradation; sampled at t = 24 h; cleaved bond [19]: F-P, minor; also recorded: P-Q, minor; also recorded: Q-L, major; also recorded: Y-P, major; also recorded: Q-P, major; not cleaved (mammalian enzymes): resistant to degradation by mammalian enzymes; not cleaved (pepsin): resistant to degradation; sampled at t = 24 h
–	–	–	–	–	–	–	–	Q-pNA	–	–	–	–	–	–	–	–	–	–	benzyloxycarbonyl-YPQ-paranitroanilide	Q-pNA	cleaved bond [3]: Q-pNA; cleaved bond [7]: Q-pNA; cleaved bond [8]: Q-pNA; cleaved bond [12]: Q-pNA
